Experimental data reported in PMC9699003, “Arene Variation of Highly Cytotoxic Tridentate Naphthoquinone-Based Ruthenium(II) Complexes and In-Depth In Vitro Studies” (Pharmaceutics, 2022).

What was measured:
CH1/PA-1 cells = test: Cell cycle distribution (PI staining, flow cytometry); type: cell-based, human; conditions: CH1/PA-1, 24 h
Protocol: (§1) For the flow-cytometric determination of cell cycle distribution, CH1/PA-1 (8 × 10^4 cells/well) and SW480 (1.2 × 10^5 cells/well) cells were seeded into 12-well plates (CytoOne, tissue culture treated) in 1 mL supplemented MEM. In the first 24 h, the cells were allowed to settle and resume exponential growth. […] Gemcitabine (Sigma-Aldrich, 0.01 and 0.05 µM) and etoposide (Sigma-Aldrich, 0.25, 0.5 and 1 µM) were used as positive controls. After removal of the treatment medium, cells were washed with 1 mL PBS and trypsinized. Cells were collected in Eppendorf tubes and centrifuged (300 g, 3 min), and the supernatant was discarded. In the following step, cells were washed with 1 mL PBS and resuspended in 500 µL PI/HFS buffer (0.1% v/v Triton X-100, 0.1% w/v sodium citrate, in PBS) containing 25 µg/mL propidium iodide (PI, 1.0 mg/mL, Sigma-Aldrich). The staining was carried out overnight at 4 °C in the dark, and 200 µL of the cell suspension was loaded into 96-well round bottom plates (Falcon). Samples were measured with a Millipore Guava easyCyte 8HT flow cytometer with GuavaSoft™ software in the InCyte-modus, and 10,000 events/sample were detected. Data were analyzed with FlowJo software v 10.8.1 (Tree Star, Ashland, OR, USA) using Watson algorithm. Percentages of cells in the three cell cycle phases (G1/G0, S and G2/M) were calculated by integrating the resulting histograms of fluorescence signals (Figures S29 and S30). Experiments were repeated at least three times. For statistical evaluation, an unpaired t-test with Welch’s correction was performed by using GraphPad PRISM software.

SW480 cells = test: as above; type: cell-based, human; conditions: SW480, 24 h
Protocol: as §1

pUC19 plasmid = test: DNA interaction assay (dsDNA plasmid, agarose gel electrophoresis); type: biochemical; conditions: 50 µM; for open circular (oc) form of pUC19 (single-strand breaks): 37 °C, after 6 h of incubation, control after 6 h 3.6 ± 0.7%; for Influence on pUC19 (in words): up to 6 h
Protocol: The incubation was performed at 37 °C for different time intervals (15 min to 6 h) with continuous shaking. Additionally, 4 µL aliquots of a 6× DNA loading dye (Thermo Fisher) were added to the 20 µL reaction solution, and the DNA samples were separated in a 1% agarose gel in 1 × Tris-Borate-EDTA (TBE) buffer. Electrophoresis was initiated at 60 V for 5 min and continued at 120 V for 90 min in 1 × TBE buffer. For visualization of the DNA modification degree, the agarose gel was stained with ethidium bromide (EtBr) in 1 × TBE (0.75 µg/mL) for 20 min.

NQO1 (SW480 cells) = biological target: T1, NQO1 (SW480 cells) (Homo sapiens, UniProt P15559); test: NQO1 activity assay in cell extracts after treatment; type: cell-based; conditions: SW480, 24 h treatment
T1 construct: impact on NQO1 activity in SW480 (left panel) and CH1/PA-1 (right panel) cell extracts after treatment; endogenous in cells; host or cells: SW480 colon carcinoma cells (ATCC)
T1 sequence (P15559 whole entry): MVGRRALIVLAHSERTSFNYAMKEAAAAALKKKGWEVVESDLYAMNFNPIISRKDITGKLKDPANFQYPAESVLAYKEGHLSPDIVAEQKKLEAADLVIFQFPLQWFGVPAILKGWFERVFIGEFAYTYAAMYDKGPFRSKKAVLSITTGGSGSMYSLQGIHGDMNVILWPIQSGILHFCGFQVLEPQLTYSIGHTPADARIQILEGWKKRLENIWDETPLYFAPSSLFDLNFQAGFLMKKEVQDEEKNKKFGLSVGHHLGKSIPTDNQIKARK
Protocol: To determine NQO1 activity, SW480 and CH1/PA-1 cells were seeded into 6-well plates in densities of 2 × 10^5 cells/well in 2 mL supplemented MEM. […] The test substances were dissolved in DMSO/medium. To exclude that assay validity was compromised by the use of DMSO, cells treated with DMSO alone (at concentrations corresponding to those in substance solutions) were measured in parallel. After 24 h drug exposure, the medium was aspirated, and the cells were gently washed twice with PBS. The further steps were performed following the manual instructions of the NQO1 activity assay kit (ab184867, abcam, Cambridge, UK). Protease inhibitor phenylmethylsulfonyl fluoride (PMSF, Merck, Darmstadt, Germany) and phosphatase inhibitor PhosSTOP^TM (Roche, Basel, Switzerland) were applied. For determining the protein concentration, the Micro BCA^TM protein assay (prod # 23235, Thermo Scientific) kit was used. For NQO1 activity determination, 100 µg/mL of total protein was loaded. The development of yellow color was monitored for 5 min in 20-sec intervals with a microplate reader (BioTek ELx808) at 450 nm. The measured data were evaluated according to the instructions of the NQO1 activity assay kit: “NQO1 activity was calculated by subtracting the OD value with Inhibitor from the one without Inhibitor. The activity is expressed as the change in absorbance per minute per amount of sample loaded into the well” [30]. Data are expressed as rates of increase of mean absorbance ± SDs from three independent experiments.

[1] = HPLC-MS stability measurements in PBS; conditions: PBS pH 7.4, 20 °C, 40 µM, after 4 h
Protocol: 4 µL of stock solution was mixed with 990 µL of PBS buffer (pH 7.4) and 6 µL DMSO to obtain a final concentration of 40 µM. After injection, the chromatogram at 225 nm and the corresponding mass spectra (positive mode) were recorded hourly (4 h) and after 24 h at 20 °C. Peak areas were determined by integrating complex signals of the respective chromatogram. The measurements were performed with an HPLC system (Agilent Technologies, […]) equipped with a C18 column (Waters, Atlantis T3 […], 1.0 × 150 mm^2) coupled to an MS (Bruker, amaZon SL, ESI, positive mode) with a flow rate of 0.2 mL/min at 20 °C and a gradient (5–95%) with Milli-Q water/ACN.

| SMILES | Cells in G1/G0 phase (CH1/PA-1 cells; 100 µM) [%] | Cells in G2/M phase (CH1/PA-1 cells; 100 µM) [%] | Cells in S phase (CH1/PA-1 cells; 100 µM) [%] | Cells in G1/G0 phase (CH1/PA-1 cells; 150 µM) [%] | Cells in G2/M phase (CH1/PA-1 cells; 150 µM) [%] | Cells in S phase (CH1/PA-1 cells; 150 µM) [%] | Cells in G1/G0 phase (CH1/PA-1 cells; 200 µM) [%] | Cells in G2/M phase (CH1/PA-1 cells; 200 µM) [%] | Cells in S phase (CH1/PA-1 cells; 200 µM) [%] | Cells in G1/G0 phase (SW480 cells; 5 µM) [%] | Cells in G2/M phase (SW480 cells; 5 µM) [%] | Cells in S phase (SW480 cells; 5 µM) [%] | open circular (oc) form of pUC19 (single-strand breaks) (pUC19 plasmid) [%] | Cells in G1/G0 phase (SW480 cells; 1.25 µM) [%] | Cells in G2/M phase (SW480 cells; 1.25 µM) [%] | Cells in S phase (SW480 cells; 1.25 µM) [%] | Cells in G1/G0 phase (CH1/PA-1 cells; 50 µM) [%] | Cells in G2/M phase (CH1/PA-1 cells; 50 µM) [%] | Cells in S phase (CH1/PA-1 cells; 50 µM) [%] | Cells in G1/G0 phase (SW480 cells; 0.31 µM) [%] | also measured |
| --- | --- | --- | --- | --- | --- | --- | --- | --- | --- | --- | --- | --- | --- | --- | --- | --- | --- | --- | --- | --- | --- |
| CC1=C([O-])C([O-])(n2cccn2)c2ccccc2C1=O.[Ru+2].c1ccccc1 (racemic) [Compound 2] | 29.9 ± 5.7 | 37.0 ± 6.1 | 39.9 ± 1.4 | 30.8 ± 7.1 | 38.3 ± 5.3 | 36.5 ± 3.3 | 29.7 ± 8.5 | 33.0 ± 3.0 | 39.1 ± 0.8 | 36.0 ± 6.7 | 32.0 ± 2.6 | 34.2 ± 3.8 | 11.8 ± 0.9 | – | – | – | – | – | – | – | Cells in G1/G0 phase (SW480 cells; 10 µM): 22.6 ± 5.7%; Cells in G2/M phase (SW480 cells; 10 µM): 40.9 ± 4.2%; Cells in S phase (SW480 cells; 10 µM): 38.8 ± 7.9%; Cells in G1/G0 phase (SW480 cells; 20 µM): 22.3 ± 6.3%; Cells in G2/M phase (SW480 cells; 20 µM): 27.9 ± 9.0%; Cells in S phase (SW480 cells; 20 µM): 52.1 ± 3.3% |
| CC1=C([O-])C([O-])(n2cccn2)c2ccccc2C1=O.Cc1ccccc1.[Ru+2] (racemic) [Compound 3] | 25.8 ± 4.6 | 40.1 ± 2.7 | 38.6 ± 1.5 | 23.1 ±7.0 | 36.9 ± 1.5 | 40.8 ± 0.6 | 24.9 ± 5.8 | 40.3 ± 2.6 | 36.4 ± 1.2 | 20.4 ± 5.9 | 28.2 ± 5.6 | 54.1 ± 3.2 | 11.7 ± 1.6 | 28.4 ± 7.8 | 35.1 ± 1.8 | 38.2 ± 7.1 | – | – | – | – | Cells in G1/G0 phase (SW480 cells; 2.5 µM): 17.6 ± 4.5%; Cells in G2/M phase (SW480 cells; 2.5 µM): 43.1 ± 7.6%; Cells in S phase (SW480 cells; 2.5 µM): 43.3 ± 7.4% |
| CC1=C([O-])C([O-])(n2cccn2)c2ccccc2C1=O.[Ru+2].c1ccc2c(c1)CCC2 (racemic) [Compound 4] | 23.9 ± 4.7 | 42.2 ± 4.7 | 38.3 ± 2.3 | – | – | – | 24.5 ± 3.8 | 40.0 ± 3.8 | 39.1 ± 3.9 | – | – | – | 12.1 ± 1.9 | 20.7 ± 5.3 | 25.0 ± 5.8 | 57.1 ± 4.5 | 25.1 ± 4.7 | 39.8 ± 2.9 | 38.4 ± 1.7 | 24.7 ± 9.2 | Cells in G2/M phase (SW480 cells; 0.31 µM): 36.1 ± 3.0%; Cells in S phase (SW480 cells; 0.31 µM): 42.1 ± 7.1%; Cells in G1/G0 phase (SW480 cells; 0.63 µM): 19.0 ± 4.6%; Cells in G2/M phase (SW480 cells; 0.63 µM): 45.8 ± 4.2%; Cells in S phase (SW480 cells; 0.63 µM): 42.0 ± 3.5%; Effect on NQO1 activity (in words) (NQO1 (SW480 cells); 10 µM): moderate suppression of enzyme activity |
| CC1=C([O-])C([O-])(n2cccn2)c2ccccc2C1=O.[Ru+2].c1ccc(-c2ccccc2)cc1 (racemic) [Compound 5] | – | – | – | – | – | – | – | – | – | – | – | – | – | – | – | – | 17.5 ± 1.8 | 46.8 ± 1.8 | 39.3 ± 1.4 | – | Cells in G1/G0 phase (CH1/PA-1 cells; 12.5 µM): 20.1 ± 5.0%; Cells in G2/M phase (CH1/PA-1 cells; 12.5 µM): 39.1 ± 5.4%; Cells in S phase (CH1/PA-1 cells; 12.5 µM): 43.1 ± 6.3%; Cells in G1/G0 phase (CH1/PA-1 cells; 25 µM): 19.2 ± 4.8%; Cells in G2/M phase (CH1/PA-1 cells; 25 µM): 46.7 ± 1.9%; Cells in S phase (CH1/PA-1 cells; 25 µM): 38.0 ± 4.0%; Cells in G1/G0 phase (SW480 cells; 0.039 µM): 32.3 ± 12.9%; Cells in G2/M phase (SW480 cells; 0.039 µM): 30.5 ± 6.2%; Cells in S phase (SW480 cells; 0.039 µM): 38.8 ± 7.2%; Cells in G1/G0 phase (SW480 cells; 0.078 µM): 19.5 ± 4.3%; Cells in G2/M phase (SW480 cells; 0.078 µM): 35.9 ± 3.5%; Cells in S phase (SW480 cells; 0.078 µM): 46.9 ± 7.7%; Cells in G1/G0 phase (SW480 cells; 0.16 µM): 15.5 ± 1.3%; Cells in G2/M phase (SW480 cells; 0.16 µM): 27.4 ± 1.3%; Cells in S phase (SW480 cells; 0.16 µM): 57.1 ± 0.1%; Influence on pUC19 (in words) (pUC19 plasmid): only a minor influence on pUC19; Effect on NQO1 activity (in words) (NQO1 (SW480 cells); 0.1 µM and 1 µM, compared to untreated control): negligible effects; Effect on NQO1 activity (in words) (NQO1 (SW480 cells); 10 µM): lowered NQO1 activity tremendously |
| CC1=C([O-])C([O-])(n2cccn2)c2ccccc2C1=O.Cc1c(C)c(C)c(C)c(C)c1C.[Ru+2] (stereo not drawn) [Compound 6] | – | – | – | – | – | – | – | – | – | – | – | – | – | – | – | – | 22.8 ± 4.7 | 40.8 ± 2.5 | 38.6 ± 4.2 | 15.0 ± 3.8 | Cells in G1/G0 phase (CH1/PA-1 cells; 25 µM): 25.1 ± 2.5%; Cells in G2/M phase (CH1/PA-1 cells; 25 µM): 44.2 ± 7.1%; Cells in S phase (CH1/PA-1 cells; 25 µM): 35.0 ± 0.9%; Cells in G1/G0 phase (CH1/PA-1 cells; 75 µM): 25.6 ± 3.5%; Cells in G2/M phase (CH1/PA-1 cells; 75 µM): 38.4 ± 3.7%; Cells in S phase (CH1/PA-1 cells; 75 µM): 39.4 ± 2.5%; Cells in G1/G0 phase (SW480 cells; 0.16 µM): 23.2 ± 4.1%; Cells in G2/M phase (SW480 cells; 0.16 µM): 35.7 ± 0.7%; Cells in S phase (SW480 cells; 0.16 µM): 43.7 ± 4.8%; Cells in G2/M phase (SW480 cells; 0.31 µM): 32.6 ± 4.7%; Cells in S phase (SW480 cells; 0.31 µM): 53.7 ± 4.9%; Cells in G1/G0 phase (SW480 cells; 0.63 µM): 24.2 ± 2.0%; Cells in G2/M phase (SW480 cells; 0.63 µM): 25.6 ± 4.5%; Cells in S phase (SW480 cells; 0.63 µM): 53.5 ± 2.6%; Influence on pUC19 (in words) (pUC19 plasmid): only a minor influence on pUC19; Percentage amount of initial complex remaining [1]: less than 70% |
